Results reported in patent US11498946B2, “Pharmaceutical composition for combination therapy for preventing or treating cancer containing tumor-specific drug conjugate and anti-PD-L1 antibody as active ingredients” (KOREA INSTITUTE OF SCIENCE AND TECHNOLOGY, priority 2019, dated 2022).

Columns and labels:
[1] = test system: HT-29 colorectal cancer cells; test: Tumor-treating effect in vivo, tumor volume depending on time, HT-29 tumor animal model; design: species or system athymic nude mice; conditions: HT-29 tumor in nude mice; FDOX or DOX 4 mg/kg intravenously, anti-PD-L1 antibody 10 mg/kg intraperitoneally, 3-day intervals
Protocol: The following comparison groups were prepared to compare the efficiency of the test group.
Control group (control): identical to the test group except that no drug was administered.
First comparison group (FDOX): identical to the test group except that only the formulated drug conjugate (FDOX) was administered without the anti-PD-L1 antibody.
Second comparison group (DOX+PD-L1 Ab): identical to the test group except that 4 mg/kg of doxorubicin was administered intravenously instead of the formulated drug conjugate (FDOX).

[2] = design: species or system athymic nude mice; conditions: mouse, in vivo
Protocol: For the animal models of the second and third comparison groups, the organs were extracted on day 20 after the drug administration because the animals died within 20 days. After preparing tissues of each extracted organ into 10-μm thick sections, cell death in the organ was evaluated by staining cancerous tissues with annexin V. In addition, the tissues extracted from the major organs (heart, kidney, spleen, lung and liver) were stained with hematoxylin and eosin for investigation of the structural change in the tissues and toxicity.

[3] = In-vivo toxicity by body weight depending on time, and death, in tumor-bearing mice; conditions: HT-29 tumor-bearing nude mice
Protocol: Specifically, athymic nude mice (6-week-old, 20-25 g, male) purchased from Nara Bio (Gyenggi-do, Korea) were used. In order to express colorectal cancers in the male nude mice, a tumor animal model was prepared by subcutaneously inoculating 1×10^7 HT-29 colorectal cancer cells into left thighs. […] The formulated drug conjugate (FDOX) was administered intravenously at a concentration of 4 mg/kg, and the anti-PD-L1 antibody was administered intraperitoneally at a concentration of 10 mg/kg. A test group (FDOX+PD-L1 Ab) was prepared by administering the two therapeutic agents at 3-day intervals.
For the test group, the control group and the first, second and third comparison groups, tumor size was measured at 2-day intervals and calculated as maximum diameter×minimum diameter. In addition, the body weight of each group was measured at 2-day intervals to investigate in-vivo toxicity.

COc1cccc2c1C(=O)c1c(O)c3c(c(O)c1C2=O)C[C@@](O)(C(=O)CO)C[C@@H]3O[C@H]1C[C@H](N)[C@H](O)[C@H](C)O1 [DOX, doxorubicin]
tumor growth (tumor volume depending on time) [1]: could be delayed but could not be completely inhibited | change in the major organs (H&E) [2]: long-term toxicity such as hemorrhage, disruption of tissue structure, enucleation | in-vivo / systemic toxicity [3]: fatal side effect leading to death
